Measurements published in patent US12589099B2 (priority 2021, dated 2026).

Columns and labels:
Assay type in all cases: in vivo, male Wistar rats
[1] = system: moderate traumatic brain injury (TBI) induced by controlled cortical impact (CCI); test: Modified neurological severity score (mNSS) after TBI
Text: (§1) Young adult (2-3 months) male Wistar rats were subjected to a moderate traumatic brain injury (TBI) induced by controlled cortical impact (CCI). Animal models of TBI including the CCI model and functional tests have been described in detail in peer reviewed publications (Xiong et al., 2013, Nat Rev Neurosci.; Zhang et al., 2016, J Neurosurg.; Zhang et al., 2016, Neurochem Int.; Zhang et al., 2021, J Neurotrauma). Injury consisted of a single impact at 4.0 m/sec, 2.5 mm deformation to the left parietal cortex. In addition, a group of animals was left healthy/not injured to serve as a healthy control.
(§2) The animals were divided into 3 groups: • 1) TBI+Vehicle (purified water, n=10) • 2) TBI+ALPHA-1062 (4.5 mg/kg) (n=10) • 3) Healthy/not injured and not treated (Sham surgery) (n=10)
(§3) The substance used in this study was ALPHA-1062 at 4.5 mg/kg. As control treatment (vehicle) purified water was administered intranasally (IN). The ALPHA-1062 and the control treatment were initiated 2 hours after injury and continued twice daily (with a 6-hour interval) for 35 consecutive days.
In addition, neurological functional tests were performed by conducting footfault tests and observations to determine the modified neurological severity score (mNSS) at 1, 7, 14, 21, 28, 35 days after TBI (see Table 1). The mNSS is a composite score assessing motor, sensory, balance, and reflex functions. […]

[2] = system: NeuN and BrdU double positive granule neurons in the dentate gyrus; test: NeuN/BrdU double label, newborn neurons in the dentate gyrus 35 days post-TBI; conditions: 4.5 mg/kg IN twice daily, 35 days following TBI
Text: as §1
The substance used in this study was ALPHA-1062 at 4.5 mg/kg. As control treatment (vehicle) purified water was administered intranasally (IN). The ALPHA-1062 and the control treatment were initiated 2 hours after injury and continued twice daily (with a 6-hour interval) for 35 consecutive days. […]
Histological assessment was performed including quantitative image analysis protocols; followed by statistical analysis of the data. […]
For cell counting and quantitation NeuN+ cells were examined in the ipsilateral cortex, DG, CA1, and CA3 regions of the ipsilateral hippocampus. […] The number of BrdU+ cells (red-fluorophore) and NeuN (green-fluorophore)/BrdU-colabeled cells (yellow after merge) were counted. […]

[3] = Body weight over the 35-day TBI study (overt toxicity); conditions: 4.5 mg/kg IN twice daily
Text: as §1, §2, §3

COc1ccc2c3c1O[C@H]1C[C@@H](OC(=O)c4ccccc4)C=C[C@@]31CCN(C)C2 [ALPHA-1062, (4aS,6R,8aS)-5,6,9,10,11,12-hexahydro-3-methoxy-11-methyl-4aH-[1]benzofuro[3a,3,2-ef][2]benzazepin-6-ol benzoate]
mNSS performance ([1]; 4.5 mg/kg IN twice daily, from day 14 (D14) onwards, vs vehicle): statistically significantly better
Modified Neurological Severity Score (mNSS), performance over VEHICLE ([1]; rats after TBI, compared to vehicle treatment): superior
NeuN and BrdU double positive granule neurons compared to both vehicle-treated and sham surgery animals [2]: significantly higher (p<0.05) numbers
overt toxicity ([3]; 35 days, compared to vehicle animals): did not show overt toxicity
body weight compared to vehicle treated or untreated animals ([3]; each time point D0-D35, P>0.05): no significant alterations in body weight
body weight compared to day zero (D0), days 29-35 ([3]; within group): significant body weight gain
body weight compared to day zero (D0), days 1-7 ([3]; within group, p<0.05): significant body weight loss
